Data reported in patent publication US7226941B2, “Compound for treating angiogenesis” (HIF Bio, Inc., priority 2003, dated 2007).

Legend:
Type in all cases: cell-based, human
[1] = system: HIF-2α; assay: Immunoblotting of HIF-2α protein in hypoxic Hep3B cells; conditions: for inhibition of HIF-2α: hypoxia (1% O2) 18 hours, immunoblot
Protocol: Hep3B hepatoma cells are cultured in α-modified Eagle's medium supplemented with 10% […] fetal bovine serum, 100 units/ml penicillin, and 100 μg/ml streptomycin in a humidified atmosphere containing 5% CO2 at 37° C. Oxygen tension in the incubator is held at either 140 mm Hg (20% O2, v/v, normoxia) or 7 mm Hg (1% O2, v/v, hypoxia). After 24 hour stabilization under normoxic conditions, cells are incubated under normoxic or hypoxic conditions for 18 hours in the presence or in the absence of compounds of the invention. For the immunoblotting of HIF-1α or HIF-2α in cultured cells, 20 μg of extracted proteins are separated on 6.5% SDS/polyacrylamide gels, and then transferred to an Immobilon-P membrane (Millipore). Immobilized proteins are incubated overnight at 4° C. with rat anti-HIF-1α(Chun et al., J Cell Sci 2001 114:4051-4061) or anti-HIF-2α(Novus Biologicals, Littleton, Colo.), diluted 1:5000 in 5% nonfat milk in TBS/0.1% Tween-20 (TTBS). Horseradish peroxidase-conjugated anti-rat antiserum is used as a secondary antibody and the complexes are visualized using an Enhanced Chemiluminescence Plus Kit (Amersham Pharmacia Biotec).
To induce HIF-1α and HIF-2α proteins, Hep3B cells were incubated in a hypoxic chamber (1% oxygen tension) for 16 hours. […] The amounts of HIF proteins were measured by Western blotting method.

[2] = system: HIF-1α; assay: Immunoblotting of HIF-1α protein in hypoxic Hep3B cells; conditions: hypoxia (1% O2) 18 hours, immunoblot
Protocol: Hep3B hepatoma cells are cultured in α-modified Eagle's medium supplemented with 10% heat-activated fetal bovine serum, 100 units/ml penicillin, and 100 μg/ml streptomycin in a humidified atmosphere containing 5% CO2 at 37° C. Oxygen tension in the incubator is held at either 140 mm Hg (20% O2, v/v, normoxia) or 7 mm Hg (1% O2, v/v, hypoxia). After 24 hour stabilization under normoxic conditions, cells are incubated under normoxic or hypoxic conditions for 18 hours in the presence or in the absence of compounds of the invention. For the immunoblotting of HIF-1α or HIF-2α in cultured cells, 20 μg of extracted proteins are separated on 6.5% SDS/polyacrylamide gels, and then transferred to an Immobilon-P membrane (Millipore). Immobilized proteins are incubated overnight at 4° C. with rat anti-HIF-1α(Chun et al., J Cell Sci 2001 114:4051-4061) or anti-HIF-2α(Novus Biologicals, Littleton, Colo.), diluted 1:5000 in 5% nonfat milk in TBS/0.1% Tween-20 (TTBS). Horseradish peroxidase-conjugated anti-rat antiserum is used as a secondary antibody and the complexes are visualized using an Enhanced Chemiluminescence Plus Kit (Amersham Pharmacia Biotec).

[3] = system: Hep3B hepatoma cells; assay: Cell cycle analysis by FACS (propidium iodide DNA content)
Protocol: FIG. 1a is the FACS data to analyze the cell distribution based on DNA content. […] The cell cycle analysis was performed using a Becton Dickinson FACStar flow cytometer. Cells (1-2×10^6) were plated in 10 cm culture dishes at concentrations determined to yield 70-80% confluence within 24 h. Cells were treated with DMSO or YC-1 and incubated for described time. After incubation, both adherent and floating cells were harvested, washed with 3 ml PBS and resuspended with 200 μl PBS, fixed in 75% ethanol for 30 min on ice. After washing with PBS, cells were labeled with propidium iodide (0.05 mg/ml) in the presence of RNase A (0.5 mg/ml), incubated at room temperature in the dark for 30 min. DNA content was then analyzed using FACStar flow cytometer, and then excited with an argon, water-cooled laser emitting at 488 nm. Propidium iodide was detected using a 630±20 nm band pass filter.
The compounds induce cell cycle arrest as shown in Hep3B liver tumor cells. After application of 1 μM into cultures of Hep3B cells, typically in 48 hours, 28% of the cells were in the G0/G1 phases, 15% in the G2/M phases, 57% in the S phase, and a small percentage were characterized as being in the sub-G1 phase. In the control, typically 60% of the cells were in the G0/G1 phases, 16% in the G2/M phases, and […] in the S-phase.

[4] = system: PARP; assay: PARP cleavage by immunoblotting; conditions: 1, 2 μM for 90 h, Hep3B (FIG. 3b)
Protocol: (§1) The activity of caspase-3 was represented in nmoles of p-nitroaniline released per min and per ml of cellular extract. Bars represent the mean of three separate experiments with the upper 95% confidence interval. *: p<0.05 vs. the control. […] PARP cleavage was analysed by immunoblotting with a mouse anti-PARP antibody. Proteins were visualized by Enhanced Chemiluminescence Plus. The lane C is the control. […] PARP is essential for DNA-replication in the S-phase and its absence leads to apoptosis.
(§2) Referring to FIG. 3a, the caspase-3 activity increased over time to about 5 times the activity in the control after 72 h. […] Inactivation of PARP leads to cell apoptosis. PARP protein was analyzed using Western blotting with anti-PARP antibody (BIOMOL Research Laboratories, Inc), diluted 1:5000. […] For quantification of apoptosis at single cell level, based on labeling of DNA strand breaks, Terminal deoxynucleotidyl Transferase-mediated dUTP Nick End Labeling (TUNEL) assay was performed according to the manufacturer's protocol (In Situ Cell Death Detection Kit; TMR Red; Roche Diagnostics GmbH, Mannheim, Germany). It is a method for detecting the 3′—OH ends of DNA exposed during the internucleosomal cleavage that occurs during apoptosis. Incorporation of fluorescein-dUTP allows detection by FACS. […]

[5] = system: Hep3B cells; assay: Cell viability by MTT assay; conditions: 0.5, 1, or 2 μM for 24, 48, or 72 h (FIG. 2)
Protocol: The percentages of viable cells were measured by MTT assay. […] Bars represent the mean of three separate experiments with the upper 95% confidence interval. *: p<0.05 vs. the control.
Compounds of Formula I or II can be evaluated for efficacy using the methods described above. In addition, compounds of the invention have efficacy in a cell viability assay using human cancer cells. The cells are treated with a compound of Formula I or II (at concentrations ranging from 0.5-2 μM) and buffer. Cellular viability is measured at 24, 48, and 72 hours. Treatment with the compound results in a notable decrease in cell viability.
The percentage of viable cells was measured by MTT assay. Cells were plated in 12 well plates. […] Resulting insoluble formazan was dissolved with 0.04 N HCl in isopropanol. Absorbance of purple color of formazan was measured at 570 nm with a spectrophotometer.

[6] = system: Hep3B cells; assay: TUNEL assay of apoptosis
Protocol: as §1, §2

[7] = system: HIF; assay: HIF activity assay (EPO enhancer luciferase reporter); conditions: Hep3B, 16 h at 1% O2 (FIGS. 4a-4i)
Protocol: The synthetic DNA coding the HIF-binding enhancer region of the EPO gene, 5-[…] ATCT-3 (SEQ. ID NO. 1), was inserted into the pGL3 promoter plasmid (Promega). To assay the HIF activity, Hep3B cells were cotransfected with the luciferase reporter gene and the plasmid cytomegalovirus-β-gal, using the calcium phosphate method. Transfected cells were split into nine aliquots and incubated for 42 h. After stabilizing, the cells were incubated for 16 h at 20% or 1% O2. They were then lysed and assayed for luciferase activity using a Biocounter M1500 luminometer (Lumac). β-gal assays were performed for normalization of transfection.

Row | SMILES | inhibition of HIF-2α [1] | inhibition of HIF-1α [2] | percentage of cells in the S-phase over time (FIG. 1) ([3]; Hep3B cells, time after application) | dose dependence of the cell cycle (S-phase) arrest ([3]; Hep3B cultures) | effect on cell cycle (FIG. 1) ([3]; Hep3B hepatoma cells) | expression of HIF-2α protein ([1]; 1% oxygen 16 hours, 0.3 to 10 μg/ml, Western blotting (FIGS. 4a-4i)) | amount of the 89 kDa fragment of PARP [4] | cell viability [5] | percentage of TUNEL-positive cells ([6]; 1, 2 μM for 90 h, Hep3B (FIG. 3c)) | percentage of TUNEL-positive cells with caspase-3 inhibitor ([6]; caspase-3 inhibitor Ac-DEVD-CHO pre-treated 1 h before YC-1) | HIF activity (luciferase reporter) [7]
1 | OCc1ccc(-n2cnc3ccccc32)o1 [{5-[1H-benzimidazol-1-yl]-furan-2-yl}-methanol] | strong inhibitors | strong inhibitors |  |  |  |  |  |  |  |  | 
2 | OCc1ccc(-c2nn(Cc3ccccc3)c3ccccc23)o1 [YC-1, 3-(5′-hydroxymethyl-2′-furyl)-1-benzylindazole] |  |  | steadily increased with time after application | dose dependent up to 5 μM | S-phase arrest | effectively reduced | increased when the YC-1 dose was doubled | decreased by YC-1, dose-dependently and time-dependently | increased dose-dependently | decreased significantly | effectively reduced
3 | CC(C)n1nc(-c2ccc(CO)o2)c2ccccc21 [{5-[1-(prop-2-yl)-1H-indazol-3-yl]-furan-2-yl}-methanol] | strong inhibitors | strong inhibitors |  |  |  |  |  |  |  |  | 
